Target: T1, BMPR1A (ALK3) (Homo sapiens, UniProt P36894)
T1 construct: purchased Thermo Fisher Scientific (Life Technologies) SelectScreen
Test: SelectScreen LanthaScreen
Type: binding
Settings: read-out: % displacement
In short: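 Percent values come from Thermo SelectScreen profiling of NU5455, combining activity and binding assays. CSF1R was run in Z'LYTE format at Km app ATP, and CAMK1 in Adapta format with ATP listed at 10.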

T1 sequence (P36894 24-532): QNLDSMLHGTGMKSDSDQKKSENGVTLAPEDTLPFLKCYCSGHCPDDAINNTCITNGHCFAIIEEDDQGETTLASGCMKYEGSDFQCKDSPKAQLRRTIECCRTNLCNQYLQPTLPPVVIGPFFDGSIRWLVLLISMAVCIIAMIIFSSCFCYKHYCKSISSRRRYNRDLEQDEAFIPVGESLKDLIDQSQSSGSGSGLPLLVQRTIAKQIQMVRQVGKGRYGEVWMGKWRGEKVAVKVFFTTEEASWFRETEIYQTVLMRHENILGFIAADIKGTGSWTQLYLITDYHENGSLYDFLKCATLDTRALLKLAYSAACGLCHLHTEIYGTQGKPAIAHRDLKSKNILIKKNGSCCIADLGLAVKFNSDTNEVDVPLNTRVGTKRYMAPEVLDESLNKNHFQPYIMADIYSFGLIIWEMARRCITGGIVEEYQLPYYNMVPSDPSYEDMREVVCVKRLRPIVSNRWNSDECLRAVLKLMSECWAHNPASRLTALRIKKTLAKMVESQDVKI

**Q.** `CN(C(=O)CN1CCOCC1)c1ccc2sc3c(-c4cccc5c(=O)cc(N6CC7CCC(C6)O7)oc45)cccc3c2c1` [NU5455] was tested. Which inhibition at 1 µM did it give?
**A.** The inhibition at 1 µM was -4.4%.

Source: publication PMC6934184, “Selective DNA-PKcs inhibition extends the therapeutic index of localized radiotherapy and chemotherapy” (The Journal of Clinical Investigation, 2019)
